One experiment concerns intact human islets. In words: Intact human islet assay (Ki67, cell numbers). Format: cell-based. Particulars: 8 days. On the procedure:
Rat or human β-cell proliferation assays were performed using dissociated primary rat or human islets. Islets were treated with the indicated compounds in the presence of EdU for 4 days before fixing and staining. EdU incorporation was measured by click reaction with AlexaFluor-647-azide (Invitrogen). For intact islet assays, primary human islets were treated for 7 or 8 days (as indicated in the legend). Rat dissociated islets were cultured in RPMI medium containing 10% FBS and human dissociated islets were cultured in PIM-S media (Prodo laboratories) with 10% human […].

The test system of experiment [1] is human islets in STZ-treated NSG mice. The experiment in a line: Human islets transplanted under kidney capsule of STZ-treated NSG mice, oral dosing. In kind it is in vivo, mouse. The conditions noted are these: 50 mg kg^−1, twice daily, 9 days. From the text: All animal care and experimental procedures were approved by the Institutional Animal Care and Use Committee (IACUC) of Genomics Institute of the Novartis Research Foundation and strictly followed the NIH guidelines for humane treatment of animals. The double transgenic RIP-DTA male mice (Tg(Ins2-rtTA)2Efr Tg(teto-DTA)1Gfi/J; Jackson Laboratory, Stock # 008755) were bred in-house and were maintained in a 12-h light/12-dark cycle environment with controlled temperature, humidity and ventilation. Animals were housed 3–5 mice per cage and had free access to water and standard laboratory chow. […] Blood glucose levels were measured from tail-vein blood with a glucometer (AlphaTrak2 Monitoring System; Abbott). […] Body weight and blood glucose were monitored every third day. […] Pancreatic insulin content was determined by MSD (meso-scale discovery). […] Baseline body weight and tail-vein blood glucose measurements were recorded before diabetic induction. To obtain a diabetic state, animals were given an intraperitoneal dose of STZ (135 mg kg^−1) and blood glucose was monitored before transplant. […]
Human islets (obtained commercially from Prodo Laboratories Inc.) were recovered for 48 h before transplantation. […] While mice were prepared, islets were counted according to IEQs and prepared into islet suspension of 800 IEQ/mouse in cold PBS. […]

The next experiment deals with T1, CHEK1 (Homo sapiens, UniProt O14757).
T1 construct: purchased Ambit KINOMEscan
T1 sequence (O14757 whole entry): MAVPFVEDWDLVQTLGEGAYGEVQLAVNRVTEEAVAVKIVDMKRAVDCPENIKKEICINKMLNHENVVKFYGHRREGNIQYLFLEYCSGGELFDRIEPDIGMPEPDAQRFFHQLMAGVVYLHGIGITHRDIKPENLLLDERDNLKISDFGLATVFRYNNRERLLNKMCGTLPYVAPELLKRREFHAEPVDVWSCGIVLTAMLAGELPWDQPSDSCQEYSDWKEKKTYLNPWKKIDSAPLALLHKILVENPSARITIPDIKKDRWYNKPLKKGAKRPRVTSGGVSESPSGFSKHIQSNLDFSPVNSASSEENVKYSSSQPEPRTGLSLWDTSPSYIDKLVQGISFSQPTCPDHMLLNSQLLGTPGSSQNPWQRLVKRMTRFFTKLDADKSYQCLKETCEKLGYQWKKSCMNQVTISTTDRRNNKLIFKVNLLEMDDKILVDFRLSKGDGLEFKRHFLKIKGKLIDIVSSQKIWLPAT
In words: Kinase profiling. Particulars: Conc 1000 nM; read-out: Percent inhibition, CHEK1. Format: biochemical. The source says: (§1) ; Fig. 5a; Supplementary Table 1). We focused on Dyrk1a because other kinases inhibited by aminopyrazine compounds were not highly expressed in β-cells and because Dyrk1a was known to inhibit the NFAT pathway that was previously implicated in β-cell proliferation. We used molecular modelling to dock the aminopyrazine compounds into the published structure of Dyrk1a (protein databank accession code 2vx3.pdb; Fig. 5b).

The next experiment concerns the target T2, ErbB4 (HER4) (Homo sapiens, UniProt Q15303).
T2 construct: purchased Ambit KINOMEscan
The experiment in a line: Kinase profiling. The conditions noted are these: Conc 1000 nM; read-out: Percent inhibition, ErbB4 (HER4). In kind it is biochemical.
Excerpt: as §1

In a further experiment the target is T3, FGFR3 (Homo sapiens, UniProt P22607).
T3 construct: purchased Ambit KINOMEscan
T3 sequence (P22607 23-806): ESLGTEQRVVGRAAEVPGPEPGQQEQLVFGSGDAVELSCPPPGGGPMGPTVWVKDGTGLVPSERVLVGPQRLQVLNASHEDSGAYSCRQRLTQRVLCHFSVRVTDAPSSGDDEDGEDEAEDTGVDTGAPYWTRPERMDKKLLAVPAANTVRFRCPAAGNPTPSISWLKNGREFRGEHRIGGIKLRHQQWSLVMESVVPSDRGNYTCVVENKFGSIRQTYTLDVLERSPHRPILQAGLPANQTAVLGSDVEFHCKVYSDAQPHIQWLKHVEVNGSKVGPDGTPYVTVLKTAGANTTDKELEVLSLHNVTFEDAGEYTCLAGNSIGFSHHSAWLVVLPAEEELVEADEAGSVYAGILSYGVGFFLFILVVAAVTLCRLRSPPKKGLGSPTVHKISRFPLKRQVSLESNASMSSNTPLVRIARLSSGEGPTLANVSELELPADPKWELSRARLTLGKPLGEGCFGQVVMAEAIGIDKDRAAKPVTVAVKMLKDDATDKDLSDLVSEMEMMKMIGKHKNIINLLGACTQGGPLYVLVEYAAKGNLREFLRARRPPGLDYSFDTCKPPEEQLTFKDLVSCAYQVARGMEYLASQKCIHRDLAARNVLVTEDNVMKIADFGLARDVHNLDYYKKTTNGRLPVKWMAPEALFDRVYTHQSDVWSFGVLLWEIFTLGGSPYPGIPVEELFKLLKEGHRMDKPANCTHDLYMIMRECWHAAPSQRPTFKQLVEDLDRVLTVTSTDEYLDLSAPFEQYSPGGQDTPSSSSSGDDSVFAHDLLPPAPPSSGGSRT
The experiment in a line: Kinase profiling. Particulars: Conc 1000 nM; read-out: Percent inhibition, FGFR3. Format: biochemical.
Excerpt: as §1

For the next experiment, the target named is T4, Fyn (Homo sapiens, UniProt P06241).
T4 construct: purchased Ambit KINOMEscan
T4 sequence (P06241 whole entry): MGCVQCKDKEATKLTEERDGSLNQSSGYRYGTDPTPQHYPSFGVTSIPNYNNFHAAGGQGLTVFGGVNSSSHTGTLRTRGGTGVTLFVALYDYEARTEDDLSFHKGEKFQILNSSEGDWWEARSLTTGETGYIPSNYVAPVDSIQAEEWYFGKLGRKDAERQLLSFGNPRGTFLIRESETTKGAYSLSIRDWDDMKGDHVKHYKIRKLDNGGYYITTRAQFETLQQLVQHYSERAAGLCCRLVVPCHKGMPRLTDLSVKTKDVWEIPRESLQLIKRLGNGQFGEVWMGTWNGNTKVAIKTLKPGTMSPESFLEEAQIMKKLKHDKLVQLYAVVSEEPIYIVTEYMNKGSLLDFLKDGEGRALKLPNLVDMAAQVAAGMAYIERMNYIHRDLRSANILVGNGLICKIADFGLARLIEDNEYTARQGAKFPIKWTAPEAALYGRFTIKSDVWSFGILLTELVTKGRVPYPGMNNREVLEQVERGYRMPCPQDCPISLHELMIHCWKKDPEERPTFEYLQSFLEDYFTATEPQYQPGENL
The experiment in a line: Kinase profiling. Format: biochemical. The conditions noted are these: read-out: Percent inhibition, Fyn.
Excerpt: as §1

A further experiment concerns the target T5, IRAK4 (Homo sapiens, UniProt Q9NWZ3).
T5 construct: purchased Ambit KINOMEscan
The experiment in a line: Kinase profiling. The conditions noted are these: Conc 1000 nM; read-out: Percent inhibition, IRAK4. Format: biochemical.
Excerpt: as §1

A further experiment addresses T6, TTK (Homo sapiens, UniProt P33981).
T6 construct: purchased Ambit (KINOMEscan)
In words: Kinase profiling. Format: biochemical. The conditions noted are these: Conc 1000 nM; read-out: Percent inhibition, TTK.
Excerpt: as §1

The target in another experiment is T7, bRAF (Homo sapiens, UniProt P15056).
T7 construct: purchased Ambit KINOMEscan
T7 sequence (P15056 whole entry): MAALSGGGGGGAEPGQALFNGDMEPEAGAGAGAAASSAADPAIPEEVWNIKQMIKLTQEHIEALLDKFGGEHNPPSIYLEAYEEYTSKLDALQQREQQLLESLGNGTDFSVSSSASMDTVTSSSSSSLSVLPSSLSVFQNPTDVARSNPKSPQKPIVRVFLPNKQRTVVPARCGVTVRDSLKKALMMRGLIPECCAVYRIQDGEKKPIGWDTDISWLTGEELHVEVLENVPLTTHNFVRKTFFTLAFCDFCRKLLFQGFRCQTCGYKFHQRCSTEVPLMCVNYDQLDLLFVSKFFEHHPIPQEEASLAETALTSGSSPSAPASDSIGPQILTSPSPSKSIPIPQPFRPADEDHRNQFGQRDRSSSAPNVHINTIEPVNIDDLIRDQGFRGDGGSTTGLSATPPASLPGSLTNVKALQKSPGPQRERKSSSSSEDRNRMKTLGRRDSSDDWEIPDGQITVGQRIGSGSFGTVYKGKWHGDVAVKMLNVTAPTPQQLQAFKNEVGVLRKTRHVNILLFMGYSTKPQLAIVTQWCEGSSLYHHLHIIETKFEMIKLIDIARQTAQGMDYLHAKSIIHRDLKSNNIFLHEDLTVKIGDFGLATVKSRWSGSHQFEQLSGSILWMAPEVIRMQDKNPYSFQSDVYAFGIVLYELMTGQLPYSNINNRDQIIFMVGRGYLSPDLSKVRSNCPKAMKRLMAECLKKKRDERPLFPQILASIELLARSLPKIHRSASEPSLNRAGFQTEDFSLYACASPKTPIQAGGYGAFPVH
In words: Kinase profiling. Format: biochemical. Particulars: Conc 1000 nM; read-out: Percent inhibition, bRAF.
Excerpt: as §1

Experiment [2] has as its system β-catenin nuclear localization in primary rat islets. In words: β-Catenin nuclear translocation. In kind it is cell-based. On the procedure:
At the end of the treatment, cells were fixed with 4% paraformaldehyde, blocked and permeabilized, and stained by standard immunofluorescence techniques for β-catenin (Cell signaling, #9562L; dilution 1:500), NFATc1 (Santa Cruz, rabbit polyclonal, SC-7294; dilution 1:200) or NFAT3c (Santa Cruz, SC-8321; dilution 1:200) and nuclear DNA was stained with DAPI (Molecular Probes; dilution 1:1,000). EdU incorporation was measured by click reaction with AlexaFluor-647-azide (Invitrogen). Plates were imaged with confocal microscope and analysed by Metamorph (Molecular Devices).

Another experiment has as its target T8, Dyrk1a (Homo sapiens, UniProt Q13627).
T8 construct: purchased Ambit KINOMEscan
In words: Kinase profiling. In kind it is biochemical. The conditions noted are these: Conc 1000 nM; read-out: Percent inhibition, DYRK1a.

SMILES strings stand for the structures.

T6 sequence (P33981 whole entry): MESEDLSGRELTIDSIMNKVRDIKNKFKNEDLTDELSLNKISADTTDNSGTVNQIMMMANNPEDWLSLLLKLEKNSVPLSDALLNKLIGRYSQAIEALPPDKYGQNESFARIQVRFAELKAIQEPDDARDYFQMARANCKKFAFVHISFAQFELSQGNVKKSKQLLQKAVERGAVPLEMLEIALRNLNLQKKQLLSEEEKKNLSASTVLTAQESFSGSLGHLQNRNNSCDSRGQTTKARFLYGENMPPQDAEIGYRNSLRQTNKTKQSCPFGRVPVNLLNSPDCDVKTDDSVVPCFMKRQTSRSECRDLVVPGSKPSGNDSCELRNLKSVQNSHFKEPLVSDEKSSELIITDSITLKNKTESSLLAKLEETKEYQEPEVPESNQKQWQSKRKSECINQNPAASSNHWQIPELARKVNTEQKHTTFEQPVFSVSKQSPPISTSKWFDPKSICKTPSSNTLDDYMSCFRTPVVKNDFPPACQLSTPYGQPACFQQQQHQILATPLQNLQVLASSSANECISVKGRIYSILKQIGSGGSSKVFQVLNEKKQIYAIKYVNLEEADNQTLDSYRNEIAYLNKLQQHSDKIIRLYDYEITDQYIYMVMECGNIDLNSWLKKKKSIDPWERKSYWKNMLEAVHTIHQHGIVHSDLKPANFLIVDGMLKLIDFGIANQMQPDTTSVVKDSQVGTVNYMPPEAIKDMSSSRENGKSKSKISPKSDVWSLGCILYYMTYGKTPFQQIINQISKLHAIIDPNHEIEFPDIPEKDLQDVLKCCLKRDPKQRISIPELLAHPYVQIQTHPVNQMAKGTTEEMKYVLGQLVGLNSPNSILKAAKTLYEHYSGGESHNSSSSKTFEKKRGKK
T5 sequence (Q9NWZ3 whole entry): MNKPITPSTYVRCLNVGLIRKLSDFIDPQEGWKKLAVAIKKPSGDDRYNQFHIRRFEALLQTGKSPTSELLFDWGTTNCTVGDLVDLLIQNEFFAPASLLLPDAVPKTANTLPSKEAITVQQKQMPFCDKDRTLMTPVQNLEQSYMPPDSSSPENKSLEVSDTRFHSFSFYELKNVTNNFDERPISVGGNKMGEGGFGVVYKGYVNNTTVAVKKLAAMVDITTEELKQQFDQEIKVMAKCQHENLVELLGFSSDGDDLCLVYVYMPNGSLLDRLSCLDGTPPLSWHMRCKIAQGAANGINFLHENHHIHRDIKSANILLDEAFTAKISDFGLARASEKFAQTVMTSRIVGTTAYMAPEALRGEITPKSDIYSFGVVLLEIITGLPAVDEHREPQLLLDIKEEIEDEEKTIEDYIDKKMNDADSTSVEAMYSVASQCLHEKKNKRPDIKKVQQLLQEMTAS

One may read the inhibition as the relative decrease from the control value, in per cent. With `CC(C)Oc1ccc(F)c(-c2cnc(N)c(C(=O)Nc3cnccc3N3CCC[C@@H](C(=O)O)C3)n2)c1` [GNF4877], the “increase in the number of Ki67-positive insulin-positive cells” value in the experiment on intact human islets came to 20 fold. For the same compound, the “glucose control (fed glucose levels)” value in [1] is given as “trend towards improved glucose control”. In addition, the inhibition at 1 µM was determined as 43% on CHEK1; 54% on ErbB4 (HER4); 32% at FGFR3; 77% on Fyn (Conc 1000 nM); 52% at IRAK4; 51% on TTK. On bRAF, the inhibition at 1 µM stood at 20%. Moreover, the inhibition at 0.2 µM on Fyn (Conc 200 nM) was found to be 26%.

`Nc1ncc(-c2ccccc2)nc1C(=O)Nc1cnccc1N1CCC(C(=O)O)CC1` [GNF7156]: the β-catenin nuclear translocation result in [2] was “induced β-catenin nuclear translocation”. In addition, the inhibition at 1 µM at CHEK1 is 12%; on ErbB4 (HER4), 36%; at FGFR3, 60%; on IRAK4 it was 25%; on TTK it was 29%; on bRAF it was 46%. In addition, at Dyrk1a, the inhibition at 1 µM is 98%.

(Values after PMC4639830, “Inhibition of DYRK1A and GSK3B induces human β-cell proliferation” (Nature Communications, 2015).)
